Target: T1, human Piezo1 (Homo sapiens, UniProt Q92508)
T1 construct: stably expressed in HEK 293 TREx cells, tetracycline-inducible (P1 HEK TREx); homotrimer
Assay: fura-2 intracellular Ca2+ plate-reader assay, inhibition of Yoda1-evoked response
Format: cell-based
Details: unreliable (estimated; limited solubility); 5 uM Yoda1; cells pretreated 30 min at 37 C with cholesterol-MbetaCD complex; nominal bath concentration; site not shown, may act through membrane; pH 7.4

T1 sequence (Q92508 whole entry): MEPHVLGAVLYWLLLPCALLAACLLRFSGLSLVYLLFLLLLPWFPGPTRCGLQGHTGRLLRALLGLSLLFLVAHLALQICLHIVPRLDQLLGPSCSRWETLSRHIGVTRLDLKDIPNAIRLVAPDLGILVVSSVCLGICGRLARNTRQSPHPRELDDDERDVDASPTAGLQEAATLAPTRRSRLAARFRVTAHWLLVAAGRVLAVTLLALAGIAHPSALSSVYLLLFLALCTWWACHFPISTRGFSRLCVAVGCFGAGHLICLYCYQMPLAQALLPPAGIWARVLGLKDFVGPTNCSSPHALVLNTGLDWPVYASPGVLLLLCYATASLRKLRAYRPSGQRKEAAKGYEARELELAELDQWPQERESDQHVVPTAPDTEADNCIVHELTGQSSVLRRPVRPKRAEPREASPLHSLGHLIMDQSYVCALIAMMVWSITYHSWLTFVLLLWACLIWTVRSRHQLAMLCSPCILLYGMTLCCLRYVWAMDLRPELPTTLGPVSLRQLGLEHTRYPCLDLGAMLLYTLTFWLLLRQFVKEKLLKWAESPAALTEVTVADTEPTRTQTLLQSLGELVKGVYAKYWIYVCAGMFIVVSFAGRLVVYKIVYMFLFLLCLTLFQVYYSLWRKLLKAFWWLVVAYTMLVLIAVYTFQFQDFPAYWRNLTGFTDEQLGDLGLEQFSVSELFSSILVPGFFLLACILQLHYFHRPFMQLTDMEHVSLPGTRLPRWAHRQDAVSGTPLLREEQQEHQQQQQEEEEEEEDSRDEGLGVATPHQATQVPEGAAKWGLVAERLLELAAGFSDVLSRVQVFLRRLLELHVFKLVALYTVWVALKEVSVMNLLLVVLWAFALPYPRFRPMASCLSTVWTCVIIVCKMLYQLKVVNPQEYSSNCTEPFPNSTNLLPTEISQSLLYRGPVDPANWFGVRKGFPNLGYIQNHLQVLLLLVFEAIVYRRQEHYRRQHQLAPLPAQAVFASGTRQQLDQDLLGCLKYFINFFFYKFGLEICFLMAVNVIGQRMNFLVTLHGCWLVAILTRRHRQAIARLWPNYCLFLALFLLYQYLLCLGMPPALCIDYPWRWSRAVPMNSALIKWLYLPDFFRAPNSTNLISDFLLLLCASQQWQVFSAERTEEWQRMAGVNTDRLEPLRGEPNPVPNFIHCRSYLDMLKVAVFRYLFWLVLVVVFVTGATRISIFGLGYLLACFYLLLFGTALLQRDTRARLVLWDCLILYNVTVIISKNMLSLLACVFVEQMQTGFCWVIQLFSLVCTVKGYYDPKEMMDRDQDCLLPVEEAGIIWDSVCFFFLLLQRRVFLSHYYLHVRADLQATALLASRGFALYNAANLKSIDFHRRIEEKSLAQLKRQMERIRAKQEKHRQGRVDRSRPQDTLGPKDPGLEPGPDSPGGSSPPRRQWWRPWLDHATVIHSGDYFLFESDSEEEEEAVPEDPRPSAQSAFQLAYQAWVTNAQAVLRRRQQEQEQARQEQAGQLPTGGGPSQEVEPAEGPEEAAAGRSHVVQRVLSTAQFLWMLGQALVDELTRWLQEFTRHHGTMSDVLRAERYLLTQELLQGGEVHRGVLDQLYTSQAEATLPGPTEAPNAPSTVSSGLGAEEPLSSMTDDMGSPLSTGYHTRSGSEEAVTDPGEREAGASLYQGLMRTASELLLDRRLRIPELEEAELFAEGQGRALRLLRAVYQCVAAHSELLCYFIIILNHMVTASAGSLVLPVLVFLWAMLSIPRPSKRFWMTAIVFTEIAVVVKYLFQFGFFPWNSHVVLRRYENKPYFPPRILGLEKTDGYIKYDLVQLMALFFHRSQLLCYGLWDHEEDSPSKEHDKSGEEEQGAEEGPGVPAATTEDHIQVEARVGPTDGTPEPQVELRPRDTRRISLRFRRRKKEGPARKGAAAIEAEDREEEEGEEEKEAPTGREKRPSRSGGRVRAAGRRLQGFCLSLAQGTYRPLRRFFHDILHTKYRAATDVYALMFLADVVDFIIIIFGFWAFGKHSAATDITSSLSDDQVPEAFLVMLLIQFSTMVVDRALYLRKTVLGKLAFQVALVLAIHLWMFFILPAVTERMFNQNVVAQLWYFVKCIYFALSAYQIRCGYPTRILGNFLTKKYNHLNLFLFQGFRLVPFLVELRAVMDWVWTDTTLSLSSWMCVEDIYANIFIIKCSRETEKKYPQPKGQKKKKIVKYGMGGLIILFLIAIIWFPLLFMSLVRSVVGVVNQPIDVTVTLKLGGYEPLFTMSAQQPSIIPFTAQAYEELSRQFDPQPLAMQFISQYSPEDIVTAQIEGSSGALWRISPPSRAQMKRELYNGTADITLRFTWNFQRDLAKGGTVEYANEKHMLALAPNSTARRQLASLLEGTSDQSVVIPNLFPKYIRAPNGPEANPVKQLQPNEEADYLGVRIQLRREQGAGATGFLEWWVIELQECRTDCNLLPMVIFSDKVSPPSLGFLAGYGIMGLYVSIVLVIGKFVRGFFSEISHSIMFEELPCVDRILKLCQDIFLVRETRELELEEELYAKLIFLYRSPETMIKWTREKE

**Q.** `CC(C)CCC[C@@H](C)[C@H]1CC[C@H]2[C@@H]3CC=C4C[C@@H](O)CC[C@]4(C)[C@H]3CC[C@]12C` [cholesterol] was tested. Which IC50 did it give?
**A.** Its IC50 is 150 µM.

— paper PMC8105715, “Modeling of full-length Piezo1 suggests importance of the proximal N-terminus for dome structure” (Biophysical Journal, 2021)
